Measurements published in patent US9562053B2, “Benzo-fused heterocyclic derivatives useful as agonists of GPR120” (Janssen Pharmaceutica NV, priority 2013, dated 2017).

Biological target: T1, Human GPR120 short form (Homo sapiens, UniProt Q5NUL3)
T1 construct: expressed in transfected cells
T1 sequence (Q5NUL3 1-361): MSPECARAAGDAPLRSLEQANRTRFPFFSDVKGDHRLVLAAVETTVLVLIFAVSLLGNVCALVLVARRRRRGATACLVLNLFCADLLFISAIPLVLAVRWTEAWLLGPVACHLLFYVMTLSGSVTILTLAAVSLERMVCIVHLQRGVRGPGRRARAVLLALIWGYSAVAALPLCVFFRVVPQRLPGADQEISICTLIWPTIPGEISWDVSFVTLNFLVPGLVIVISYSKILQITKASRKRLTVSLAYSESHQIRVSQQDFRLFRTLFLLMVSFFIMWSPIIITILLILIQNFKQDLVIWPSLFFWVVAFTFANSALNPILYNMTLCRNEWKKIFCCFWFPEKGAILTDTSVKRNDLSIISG
Experiment: Human GPR120 in Calcium Flux Assay, Procedure Calcium B (4200 cells/well)
Type: cell-based
Excerpt: This in vitro assay serves to assess test compound agonist activity against the short splice variant (SVS with Accession number NM_001195755.1 confirmed by sequencing data) of the GPR120 receptor. The Human Short splice variant #2 (NM_001195755.1) is missing an in-frame coding exon compared to variant 1 (the Human Long splice variant NM_181745.3), resulting in a shorter isoform (GPR120-S) lacking a 16 aa protein segment compared to isoform GPR120-L. The assay platform utilizes HEK-293 cells stably transfected to express the Human GPR120 short form. These cells are first loaded with the Ca^+2 sensitive dye, Fluo-4 NW. Upon stimulation, intracellular released Ca^+2 can bind to the dye and alter its fluorescence intensity. This increase in fluorescence signal, and thus the flux in intracellular [Ca^+2], is detected and quantitated by fluorescence imaging using a FLIPR reader. The effect of the agonist is measured as a function of concentration and used to calculate an EC50 based upon a response curve.
In this procedure 4200 cells/well were employed.
A Human GPR120 clone (Genbank accession number NM_001195755.1) was placed into the pcDNA3.1 mammalian expression vector carrying the neomycin resistance gene. A stable mammalian cell was generated by placing the above clone into a HEK293 background. Clonal cells responding to long chain fatty acids had expression levels of GPR120 confirmed by RT-qPCR. Human HEK-GPR120 cells were cultured in Dulbecco's Modified Eagle's Medium (DMEM)/F12 medium supplemented with 10% fetal bovine serum (FBS), 1% L-Glutamine and 1% penicillin/streptomycin and 0.5 mg/ml G-418. Cells were split 2 times a week to keep the cells in the log-phase growth.
In preparation for the assay, HEK cells stably transfected with Human GPR120 (2.5K cells per well in 25 uL growth medium) were seeded into 384-well plates and then incubated overnight (37° C., 5% CO2). The next day, the media was changed to 20 μl assay buffer and the cell starved for 1 h at 37° C. The dye loading solution (2× dye) was prepared using 10 ml assay buffer, 100 μl of 250 mM probenecid, 1 bottle of Component A, and 20 μl of dye in DMSO. Twenty μl of the 2× dye loading buffer was then added to each well. The plates were incubated at 37° C. for 30 min, then at room temperature for an additional 15 minutes, before performing the assay on FLIPR.
Test compounds were prepared in assay buffer (2 μl of test compound+198 μl assay buffer, final DMSO in assay plate is 0.2%) at the desired concentration, more particularly at 100 μM, 50 μM, 25 μM, 12.5 μM, 6.25 μM, 3.125 μM, 1.562 μM, 0.781 μM, 0.391 μM, 0.195 μM, 0.098 μM, 0.049 μM, 0.024 μM and 0.012 μM.
The assay was performed on a FLIPR plate reader using the following parameters. Baseline was read for 10 seconds at 1 sec intervals. The program was set to transfer 10 μL of ligand from compound plate to cell plate after baseline reading. Aspiration was executed at: 10 μl/sec speed, 4.6 μl height; Dispensing was executed at: 30 μl/sec speed, 45 μl height. After compound addition, each well was read for 300 sec, with measurements collected at 1 sec intervals.
The kinetic data from the FLIPR was based upon a 5 minute window for data collection. The fluorescence of each sample well was used for individual calculations of a normalized RFU value, which was defined as maximum response minus the minimum response. The normalized fluorescence reading (RFU) was calculated as follows: RFU=Fmax−Fmin
The data were fitted to a sigmoidal dose-response curve with a variable Hill slope (<2) using nonlinear regression with GraphPad Prism 5.0 to calculate the EC50 values. The Fitting Equation was: Y=Bottom+(Top−Bottom)/(1+10^((LogEC50−X)*HillSlope)), where X is the log of the concentration and Y is the response.

SMILES: Cc1cc2cc(OC(F)(F)F)cc(COc3ccc(CCC(=O)O)c(C)c3C)c2o1 [Compound 36, 3-(2,3-Dimethyl-4-{[2-methyl-5-(trifluoromethoxy)-1-benzofuran-7-yl]methoxy}phenyl)propanoic acid]
- EC50: 12 nM
